Assay results taken from patent publication US20230009323A1, “COMPOUNDS AND METHODS FOR THE TREATMENT OF CRYPTOSPORIDIOSIS” (The Broad Institute, Inc., priority 2019, published 2023).

Assays:
[1] = test system: C. parvum mutant transgenic PheRS (mut482V); test: microbe, parasite or virus in culture; format: cell-based, Cryptosporidium parvum
Protocol: (§1) The in vitro drug susceptibility assay using transgenic parasites expressing Nluc was performed as described in Vinyak et al. Briefly, host intestinal epithelial adenocarcinoma (HCT-8) cells grown in 96-well plates were infected with purified transgenic Nluc-expressing oocysts (1,000 oocysts per well) and incubated with different concentrations of Compound 11 for 48 hours. Culture supernatant was discarded from the wells after 48 hours, and 200 μl of NanoGlo lysis buffer containing 1:50 of NanoGlo substrate (Promega) was added to the wells. Lysates were transferred to white 96-well plates and luminescence was measured on a Glomax luminescence reader (Promega). EC50 values were calculated in GraphPad Prism software v7.
(§2) Oocysts from the mutant (mut482V) and wild type (wtL482) transgenic lines were purified as well as the parent strain (Bunchgrass) used to generate the transgenics. Sporozoites were excised from these oocysts and used to infect 96 well format HCT-8 cultures to perform in vitro drug susceptibility assays. Cultures were incubated for 48 hours in the presence of varying concentrations of Compound 11 and parasite growth was measured by establishing whole well luciferase activity to calculate EC50 values for each strain.

[2] = HepG2 cytotoxicity; format: cell-based; conditions: human, HepG2 cells
[3] = test system: C. parvum Iowa isolate (Bunch Grass Farms); test: C. parvum time-kill curve assay in HCT-8 cells; format: cell-based, Cryptosporidium parvum
Protocol: Time-kill curve assays were performed in 384-well plates using C. parvum Iowa isolate oocysts (Bunch Grass Farms, Deary, Id.) following infection of HCT-8 cell monolayers as described in Jumani, R. S. et al. Antimicrobial agents and chemotherapy 62, e01505-01517 (2018), hereby incorporated by reference in its entirety. […] Single-phase exponential decay curves were fit using GraphPad Prism software version 6.01 after normalizing the percentage of host cells infected to the vehicle control value at each time point, which isolates the effect of compound treatment from the spontaneous reduction in parasite numbers that occurs in this culture system.

[4] = test system: C. parvum parental WT (Bunchgrass); test: In vitro drug susceptibility in HCT-8 cells, luminescence, parent strain; format: cell-based; conditions: Cryptosporidium parvum; 48 h, HCT-8, luciferase activity
Protocol: as §1, §2

[5] = test system: C. parvum; test: Asexual growth vs DMC1 sexual differentiation assay; format: cell-based, Cryptosporidium parvum
Protocol: The effect on expression of the meiotic recombination protein DMC1 was previously identified as a sexual stage-specific marker for C. parvum. The potency of Compound 11 for inhibiting asexual development during the first 48 h of infection was compared to its potency at inhibiting DMC1 expression when compound was added after 48 h of culture (the approximate timing of sexual differentiation). In addition to staining for parasites with FITC-Vicia villosa lectin and DNA with Hoechst as above, samples were stained for the presence of DMC1 with an anti-C. parvum DMC1 mouse monoclonal antibody (clone 1H10G7 (IgG2b, kappa) used as undiluted culture medium with a secondary Alexa Fluor 568 goat anti-mouse IgG antibody (Invitrogen) at 1:500 dilution. Cultures were performed in 384-well plates with the addition of amphotericin B (Sigma, catalog) to the culture medium at 0.1 to 0.5 μg·mL^−1 for these assays. Images were acquired as above, and analyzed using NIH ImageJ software.

[6] = HEK293T cytotoxicity; format: cell-based; conditions: human, HEK293T cells
[7] = test system: cytosolic PfcPheRS; conditions: previously reported; cited from earlier work
[8] = test system: C. parvum (Iowa isolate); test: EdU incorporation (DNA synthesis) assay of intracellular development in HCT-8 cells; format: cell-based, Cryptosporidium parvum; conditions: 2×EC90; FIG. 6A legend says EC90
Protocol: DNA synthesis was assayed during intracellular development of C. parvum (Iowa isolate) within HCT-8 cells by measuring incorporation of the thymidine analogue 5-ethynyl-2′-deoxyuridine (EdU) using epifluorescence microscopy as described in Jumani, R. S. et al. Nat Commun 10, 1862, doi:10.1038/s41467-019-09880-w (2019), hereby incorporated by reference in its entirety. HCT-8 cells were grown to >90% confluence in 96-well plates coated with 50 μg mL^−1 fibronectin (BD Pharmingen, catalog #354008), and then infected using the method described above with ˜5.5×10^4 C. parvum Iowa isolate oocysts per well. Compound 11 was added at 2×EC90 3 hours after infection, followed by incubation for 6 hours and then addition of […] EdU. After incubation for two more hours, the monolayers were washed and fixed with 4% formaldehyde in saline. Cells were then permeabilized, and stained with FITC-Vicia villosa lectin, Hoechst 33258, and for incorporation of EdU using the Click-iT assay kit (Thermo Fisher Scientific). Images were acquired by focusing on the parasite focal plane on top of the host cell monolayer using a 40× objective (0.7 NA), and parasitophorous vacuoles and EdU positive vacuoles were quantified using NIH ImageJ software.

[9] = test system: C. parvum (Iowa) Sterling; test: C. parvum (Iowa) Sterling growth in HCT-8 cells; format: cell-based; conditions: Cryptosporidium parvum
Protocol: (§3) Studies using farm C. parvum isolates and the C. hominis TU502 isolate were performed by Calibr at Scripps Research (La Jolla, Calif.) in 1,536-well plates using a slightly modified immunofluorescence assay as described in Love, M. S. et al. PLoS neglected tropical diseases 11, e0005373, doi:10.1371/journal.pntd.0005373 (2017), hereby incorporated by reference in its entirety. HCT-8 cell culture medium was replaced with RPMI 1640 medium supplemented with 2% heat-inactivated horse serum, 100 U·mL^−1 penicillin, and […] 24 h prior to infection with the indicated isolate. The C. parvum Iowa isolate was included as a reference in all experiments. Imaging was performed using a Cellnsight CX5 High Content screening platform (Thermo Scientific) with a 10× objective and acquisition of one microscopic field per well. Images were processed using HCS Studio Scan software, and the selected-object count (HCT-8 cells) and spot count (parasitophorous vacuoles) were analyzed in Genedata Screener (version 13.0; Standard). Dose-response curves and EC50 values were calculated using the Smart Fit function of Genedata Analyzer.

[10] = test system: C. parvum WT transgenic PheRS (wtL482); test: In vitro drug susceptibility in HCT-8 cells, luminescence, wild type transgenic; format: cell-based; conditions: Cryptosporidium parvum, HCT-8, 48 h, read-out: EC50, wild type transgenic
Protocol: as §1, §2

[11] = test system: C. hominis (TU 502); test: C. hominis TU502 growth in HCT-8 cells; format: cell-based; conditions: Cryptosporidium hominis
Protocol: as §3

In the case of `COc1ccc(NC(=O)N2CCCCN3[C@H](CN(C)C)[C@H](c4ccc(C#Cc5ccccc5)cc4)[C@@H]3C2)cc1` [Compound 11, (8R,9S,10S)-10-((dimethylamino)methyl)-N-(4-methoxyphenyl)-9-(4-(phenylethynyl)phenyl)-1,6-diazabicyclo[6.2.0]decane-6-carboxamide], the “fold shift in EC50, mutant transgenic vs wild type transgenic” value [1] is reported as 23 fold, the EC50 ([1]; Cryptosporidium parvum, HCT-8, 48 h, read-out: EC50, mutant transgenic) is reported as 1060 nM and the CC50 [2] is reported as 5000 nM. For the same molecule, the “parasites per nucleus at 80 h” value ([3]; compound at EC50) was roughly 60%, the “parasites per nucleus at 80 h” value ([3]; compound at EC90) was roughly 30% and the “time required to eliminate 99.9% of parasites” value ([3]; normalized to vehicle control) was roughly 95 h. The EC50 [4] was 29 nM, the “potency on asexual growth (0-48 h) vs DMC1 expression (48-72 h)” value [5] was “approximately equipotent” and the CC50 [6] was 5000 nM. The IC50 [7] was 23 nM, the “intracellular parasite development (EdU incorporation)” value [8] was “strongly inhibited intracellular parasite development” and the EC50 [9] was 8 nM. The EC50 [10] was 47 nM and the EC50 [11] was 10 nM.
